# The source made the active and inactive calls. The rule behind the calls is not given here.
# Tests used:
# [1] = Selectivity index, ratio of IC50 for african green monkey Vero cells to IC50 for Aspergillus flavus ATCC 204304; type: toxicity, cell-based; details: read-out: Ratio IC50
# Candida tropicalis [2] = assay: Antifungal activity against Candida tropicalis ATCC 200956 after 24 hrs; type: functional; details: ATCC 200956, 24 h
# Candida albicans [3] = assay: Antifungal activity against Candida albicans ATCC 90028 after 24 hrs; type: functional; details: ATCC 90028, 24 h
# Candida parapsilosis [4] = assay: Antifungal activity against Candida parapsilosis ATCC 22019 at 0.5 MIC up to 24 hrs by time kill study; type: functional, organism-based
# Candida albicans [5] = assay: Antifungal activity against Candida albicans ATCC 10231 after 24 hrs; type: functional; details: ATCC 10231, 24 h
# Candida parapsilosis [6] = assay: Antifungal activity against Candida parapsilosis ATCC 22019 after 24 hrs; type: functional; details: ATCC 22019, 24 h
# Aspergillus fumigatus = assay: Antifungal activity against Aspergillus fumigatus ATCC 204305 after 48 hrs; type: functional; details: ATCC 204305, 48 h
# [7] = Selectivity index, ratio of IC50 for african green monkey Vero cells to IC50 for Candida lusitaniae ATCC 200951; type: toxicity, cell-based; details: read-out: Ratio IC50
# Candida tropicalis [8] = assay: Antifungal activity against Candida tropicalis CECT 11901 after 24 hrs; details: CECT 11901, 24 h
# Aspergillus flavus = assay: Antifungal activity against Aspergillus flavus ATCC 204304 after 48 hrs; type: functional; details: ATCC 204304, 48 h
# Vero = assay: Cytotoxicity against african green monkey Vero cells after 48 hrs by MTT assay; type: cell-based; details: Chlorocebus sabaeus
# [9] = Selectivity index, ratio of IC50 for african green monkey Vero cells to IC50 for Candida krusei ATCC 6258; type: toxicity, cell-based; details: read-out: Ratio IC50
# Fusarium oxysporum = assay: Antifungal activity against Fusarium oxysporum ATCC 48112 after 48 hrs; type: functional; details: ATCC 48112, 48 h
# Pichia kudriavzevii = assay: Antifungal activity against Candida krusei ATCC 6258 after 24 hrs; type: functional; details: ATCC 6258, 24 h
# Clavispora lusitaniae = assay: Antifungal activity against Candida lusitaniae ATCC 200951 after 24 hrs; type: functional; details: ATCC 200951, 24 h
# [10] = tested on: Trichophyton mentagrophytes; assay: Antifungal activity against Trichophyton mentagrophytes ATCC 24198 after 6 days; type: functional; details: ATCC 24198, 144 h
# Aspergillus niger = assay: Antifungal activity against Aspergillus niger ATCC 16404 after 48 hrs; type: functional; details: ATCC 16404, 48 h
# Aspergillus terreus = assay: Antifungal activity against Aspergillus terreus CDC 317 after 48 hrs; type: functional; details: CDC 317, 48 h
# Candida parapsilosis [11] = assay: Antifungal activity against Candida parapsilosis ATCC 22019 at > MIC up to 24 hrs by time kill study; type: functional, organism-based
# Trichophyton rubrum = assay: Antifungal activity against Trichophyton rubrum ATCC 28188 after 6 days; type: functional; details: ATCC 28188, 144 h
# [12] = Selectivity index, ratio of IC50 for african green monkey Vero cells to IC50 for Candida parapsilosis ATCC 22019; type: toxicity, cell-based
SMILES,selectivity ratio [1],MIC90 (Candida parapsilosis [6]) [mg/L],MIC90 (Aspergillus fumigatus) [mg/L],MIC90 (Aspergillus flavus) [mg/L],IC50 (Vero) [mg/L],MIC90 (Pichia kudriavzevii) [mg/L],MIC90 [10] [mg/L],Activity (Candida parapsilosis [11]),MIC90 (Trichophyton rubrum) [mg/L],further results
CC1(C)CCCc2cc3c(cc21)C(=O)C(Cl)=C(Cl)C3=O,> 5.2,2,8,4.8,≤ 25,1,6.1,Active,8,MIC90 (Candida tropicalis [2]): 5 mg/L; MIC90 (Candida albicans [3]): 8 mg/L; Activity (Candida parapsilosis [4]): inactive; MIC90 (Candida albicans [5]): > 32 mg/L; selectivity ratio [7]: > 12.5; MIC90 (Candida tropicalis [8]): > 32 mg/L; selectivity ratio [9]: > 25; MIC90 (Fusarium oxysporum): > 32 mg/L; MIC90 (Clavispora lusitaniae): 2 mg/L; MIC90 (Aspergillus niger): > 32 mg/L; MIC90 (Aspergillus terreus): > 32 mg/L; selectivity ratio [12]: > 12.5
C[C@@H]1[C@H](O)[C@@H](C)/C=C/C=C/C=C/C=C/C=C/C=C/C=C/[C@H](O[C@@H]2O[C@H](C)[C@@H](O)[C@H](N)[C@@H]2O)C[C@@H]2O[C@](O)(C[C@@H](O)C[C@@H](O)[C@H](O)CC[C@@H](O)C[C@@H](O)CC(=O)O[C@H]1C)C[C@H](O)[C@H]2C(=O)O [AMPHOTERICIN B],7.1,2,2,4,28.6,2,< 0.004,Active,< 0.004,–

# Reference: ChEMBL document CHEMBL2417537, “Synthesis and antifungal activity of terpenyl-1,4-naphthoquinone and 1,4-anthracenedione derivatives” (Eur J Med Chem, 2013)
